Reference: patent EP0183271B1, “Lysin derivative and proteinase inhibitor” (Okamoto, Shosuke, priority 1984, dated 1986)
Square brackets hold non-standard residues; d marks the D form. Peptide text beside a SMILES is read from it. * marks the point of attachment. dPhg = N[C@@H](C(=O)O)c1ccccc1; Tos = Cc1ccc(S(=O)(=O)*)cc1

Assays:
Plasmin [1] = biological target: T1, Plasmin (Homo sapiens, UniProt P00747); test: biochemical; conditions: substrate S-2251
Description: (§1) (1) Evaluation of Antiplasmin Activity
(ii) Determination of prevention activity for S-2251 decomposition
An inhibitor sample is dissolved in a 0.05 M Tris-hydrochloric acid buffer solution (pH = 7.4) to make the total volume to 400 µl. To this solution, 50 pl of a 3 mM S-2251 solution is added and the mixture is incubated at a temperature of 37°C for 5 minutes in a constant temperature bath. Then, 50 pl of a 0.2 casein unit/ml human plasmin is added and the mixture is incubated at a temperature of 37°C for 4 minutes. Thereafter, the reaction is stopped by adding 50 µl of 50% acetic acid.
The absorbance of p-nitroaniline formed in the reaction mixture is determined at 405 nm. Thus, the concentration I50 of the inhibitor sample, at which the absorbance is one half (i.e., 1/2) of that obtained in the absence of the inhibitor, is determined.

Plasmin [2] = biological target: T1, Plasmin; test: biochemical
Description: as §1
(i) Determination of prevention activity for fibrin decomposition
0.18 M borate-physiological salt buffer solution (pH = 7.4) to make the total volme to 600 pl. To this buffer solution, 200 µl of a 0.2% bovin fibrinogen, 100 µl of a 0.3 cassein unit/ml human […] solution, and 100 µl of a 50 unit/ml bovine thrombin solution, all dissolved in the above-mentioned buffer, are added at a temperature of 37°C in a constant temperature bath. Then, the dissolution time of the fibrin mass formed above is determined.

bovine thrombin [3] = biological target: T2, bovine thrombin (Bos taurus, UniProt P00735); test: Antithrombin activity: inhibition of fibrin formation from fibrinogen (coagulation time); format: biochemical; conditions: Table III, known compounds of Table II; coagulation time extended twice; *1: 0% Inhibition at the given concentration; read-out: I50 Thrombin Fibrinogen
Description: (§2) (2) Evaluation of Antithrombin Activity
(i) Determination of inhibition activity against fibrin formation
An inhibitor sample is dissolved in a 0.18 M borate-physiological salt buffer solution (pH = 7.4) to make the total volume to 500 µl. To this solution, 400 µl of a 0.2% bovine fibrinogen solution and 100 µl of a 4 unit/ ml bovine thrombin solution are added at a temperature of 37°C in a constant temperature bath. Thus, a coagulation time is determined. The inhibitor concentraion I50, at which the coagulation time obtained in the absence of the inhibitor is extended twice, is determined.

bovine trypsin = biological target: T3, bovine trypsin (Bos taurus, UniProt P00760); test: Antitrypsin activity: inhibition of S-2238 decomposition; format: biochemical; conditions: Table III, known compounds of Table II; substrate S-2238; *1: 0% Inhibition at the given concentration; read-out: I50 Trypsin S-2238
T3 sequence (P00760 24-246): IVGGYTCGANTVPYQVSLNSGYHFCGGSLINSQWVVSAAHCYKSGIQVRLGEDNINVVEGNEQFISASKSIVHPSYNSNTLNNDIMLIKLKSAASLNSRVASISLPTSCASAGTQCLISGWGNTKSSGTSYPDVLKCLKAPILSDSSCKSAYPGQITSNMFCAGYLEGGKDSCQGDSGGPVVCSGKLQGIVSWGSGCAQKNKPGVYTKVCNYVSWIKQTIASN
Description: (3) Evaluation of Antitrypsin Activity
Determination of inhibition activity against S-2238 decomposition
An inhibitor sample is dissolved in a 0.05 M Tris-imidazole buffer solution (pH = 8.1) and 125 µl of a 1 mM S―2238 solution is added to make the total volume to 1.20 ml. The mixture is incubated at a temperature of 37°C for 5 minutes in a constant temperature bath. To this mixture, 0.05 ml of bovine trypsin is added and the absorbance, at 405 nm, of the p-nitroaniline formed per minute is determined at a temperature of 37°C by using the so-called initial velocity method. Thus, the concentration 15° of the inhibitor sample, at which the absorbance is one half (i.e., 1/2) of that obtained in the absence of the inhibitor, is determined.

bovine thrombin [4] = biological target: T2, bovine thrombin; test: Antithrombin activity: prevention of S-2238 decomposition; format: biochemical; conditions: Table III, known compounds of Table II; substrate S-2238; *1: 0% Inhibition at the given concentration; read-out: I50 Thrombin S-2238
Description: as §2
(ii) Determination of prevention activity for S-2238 decomposition
An inhibitor sample is dissolved in a 0.05 M Tris-hydrochloric acid buffer solution (pH = 8.3) to make a total volume to 400 µl. To this solution, 50 µl of a […] S-2238 solution is added and the mixture is incubated at a temperature of 37°C for 5 minutes in a constant temperature bath. Then, 50 µl of a 0.2 unit/ml bovine thrombin solution is added thereto and the absorbance, at 405 nm, of the p-nitroaniline formed per minute is determined at a temperature of 37°C by using the so-called initial velocity method. Thus, the concentration 150 of the inhibitor sample at which the absorbance is one half (i.e., 1/2) of that obtained in the absence of the inhibitor, is determined.

human plasma kallikrein = human plasma kallikrein (Homo sapiens, UniProt P03952); test: Anti-plasma kallikrein activity: prevention of S-2302 decomposition; format: biochemical; conditions: Table III, known compounds of Table II; substrate S-2302; *1: 0% Inhibition at the given concentration; read-out: I50 Plasma Kallikrein S-2302
Chain of human plasma kallikrein (P03952 391-638 limits assumed): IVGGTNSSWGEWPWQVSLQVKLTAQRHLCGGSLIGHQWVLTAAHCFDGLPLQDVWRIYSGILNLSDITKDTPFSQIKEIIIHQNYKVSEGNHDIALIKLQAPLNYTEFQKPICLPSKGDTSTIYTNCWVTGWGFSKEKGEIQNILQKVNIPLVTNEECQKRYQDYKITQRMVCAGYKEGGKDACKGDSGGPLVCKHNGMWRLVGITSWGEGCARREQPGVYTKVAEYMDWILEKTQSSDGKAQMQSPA
Chain of human plasma kallikrein (P03952 20-390 partner limits assumed): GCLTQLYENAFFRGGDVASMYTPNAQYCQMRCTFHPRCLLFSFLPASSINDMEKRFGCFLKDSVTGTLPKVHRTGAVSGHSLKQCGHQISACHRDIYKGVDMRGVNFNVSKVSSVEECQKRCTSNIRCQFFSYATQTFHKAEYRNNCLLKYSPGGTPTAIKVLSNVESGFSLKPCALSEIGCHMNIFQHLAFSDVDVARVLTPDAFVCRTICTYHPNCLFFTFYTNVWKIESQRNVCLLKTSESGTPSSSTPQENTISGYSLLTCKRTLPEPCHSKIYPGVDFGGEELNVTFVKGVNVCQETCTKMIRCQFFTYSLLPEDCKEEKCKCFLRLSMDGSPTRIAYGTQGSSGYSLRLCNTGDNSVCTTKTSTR
Description: (4) Evaluation of Anti-Plasma Kallikrein Activity
Determination of prevention activity for S―2302 decomposition
An inhibitor sample is dissolved in a 0.05 M Tris-hydrochloric acid buffer solution (pH = 7.8) to make the total volume to 400 pl. To this solution, 50 pl of a 2 mM S-2302 solution is added and the mixture is incubated at a temperature of 37°C for 5 minutes in a constant temperature bath. Then, 50 µl of a 0.12 unit/ ml human plasma kallikrein is added and the mixture is incubated at a temperature of 37°C for 5 minutes. Thereafter, 50 pl of 50% acetic acid is added to terminate the reaction. The absorbance of the p-nitroaniline formed in the reaction mixture is measured at 405 nm. Thus, the concentration 150 of the inhibitor sample, at which the absorbance is one half (i.e., 1/2) of that obtained in the absence of the inhibitor sample, is determined.

human urokinase = human urokinase (Homo sapiens, UniProt P00749); test: Antiurokinase activity: prevention of S-2444 decomposition; format: biochemical; conditions: Table III, known compounds of Table II; substrate S-2444; *1: 0% Inhibition at the given concentration; read-out: I50 Urokinase S-2444
Description: (5) Evaluation of Antiurokinase Activity
Determination of prevention activity for S-2444 decomposition
An inhibitor sample is dissolved in a 0.05 M Tris-hydrochloric acid buffer solution (pH = 8.8) to make the total volume to 400 pl. To this solution, 50 pl of a 1 mM S―2444 solution is added and the mixture is incubated at a temperature of 37°C for 5 minutes in a constant temperature bath. Then, 50 µl of a 500 unit/ ml human urokinase is added and the mixture is incubated at a temperature of 37°C for 5 minutes. Thereafter, 50 pl of 50% acetic acid is added to terminate the reaction. The absorbance of the p-nitroaniline formed in the reaction mixture is measured at 405 nm. Thus, the concentration 150 of the inhibitor sample, at which the absorbance is one half (i.e., 1/2) of that obtained in the absence of the inhibitor, is determined.

Plasmin [5] = biological target: T1, Plasmin; test: Antiplasmin activity: prevention of fibrinogen decomposition; format: biochemical; conditions: Table IV, present compounds, read-out: I50 Fibrinogen
Description: as §1
(iii) Determination of prevention activity for fibrinogen
An inhibitor sample is dissolved in a 0.18 M borate-physiological salt buffer solution (pH = 7.4) to make the total volume to 400 µl. To this solution, 500 pl of a 0.4% bovine fibrinogen solution and 100 pl of a 1 casein unit/ml human plasmin solution, all dissolved in the above-mentioned buffer are added at a temperature of 37°C in a constant temperature bath. After the mixture is allowed to stand at a temprature of 37°C for 10 minutes, 3800 µl of the above-mentioned buffer containing (3.2 mM of tranexamic acid and 200 µl of a 50 unit/ml bovine thrombin solution are added to terminate the reaction. The mixture is incubated at a temperature of 37°C for 15 minutes to precipitate the fibrin. The fibrin mass thus precipitated is adhered to or wound around a glass rod and is then washed with water. The amount of the remaining fibrinogen is determined according to a tyrosine coloring method using a phenol reagent (see J. Biol. Chem., 73, 627 (1927). From the amount of the remaining fibrinogen thus determined, the amount of decomposed fibrinogen is calculated. Thus, the concentration 150 of the inhibitor sample, at which the amount of decomposed fibrinogen is one half (i.e., 1/2) of that obtained in the absence of the inhibitor sample, is determined.

[6] = Table IV, present compounds, plasmin, read-out: I50 S-2251
[7] = Table IV, present compounds, plasmin, fibrin decomposition, read-out: I50 Fibrin
[8] = Table III, known compounds of Table II, *1: 0% Inhibition at the given concentration, read-out: I50 Plasmin S-2251
[9] = Table III, known compounds of Table II, fibrin dissolution time extended twice, *1: 0% Inhibition, *2: 19% Inhibition at the concentration, read-out: I50 Plasmin Fibrin

T1 sequence (P00747 581-810 limits assumed): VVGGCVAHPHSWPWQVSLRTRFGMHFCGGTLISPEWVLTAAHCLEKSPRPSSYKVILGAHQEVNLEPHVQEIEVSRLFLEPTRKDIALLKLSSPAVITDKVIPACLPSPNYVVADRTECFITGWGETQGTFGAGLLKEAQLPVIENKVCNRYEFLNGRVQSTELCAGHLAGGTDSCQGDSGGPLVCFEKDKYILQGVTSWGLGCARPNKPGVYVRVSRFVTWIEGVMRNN
T1 sequence (P00747 97-580 partner limits assumed): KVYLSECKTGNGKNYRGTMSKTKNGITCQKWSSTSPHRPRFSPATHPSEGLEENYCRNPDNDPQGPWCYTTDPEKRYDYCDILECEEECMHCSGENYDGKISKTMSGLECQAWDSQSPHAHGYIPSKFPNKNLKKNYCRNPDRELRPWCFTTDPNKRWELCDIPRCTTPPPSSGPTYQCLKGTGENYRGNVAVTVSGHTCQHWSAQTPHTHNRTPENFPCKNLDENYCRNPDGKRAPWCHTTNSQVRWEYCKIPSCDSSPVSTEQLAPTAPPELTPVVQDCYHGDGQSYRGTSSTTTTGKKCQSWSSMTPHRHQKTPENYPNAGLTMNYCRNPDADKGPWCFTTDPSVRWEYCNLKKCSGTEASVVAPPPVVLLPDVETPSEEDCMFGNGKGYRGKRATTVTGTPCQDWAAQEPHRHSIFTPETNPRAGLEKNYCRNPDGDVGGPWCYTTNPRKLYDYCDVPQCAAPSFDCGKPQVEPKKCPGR

| IC50 (Plasmin [1]; [6]) | IC50 (Plasmin [2]; [7]) | other results | Structure (SMILES) |
| --- | --- | --- | --- |
| 1700 µM | 310 µM | – | NCCCC[C@H](NS(=O)(=O)c1cccc2ccccc12)C(=O)Nc1ccc([N+](=O)[O-])cc1 [Compound No. 10] |
| 780 µM | 150 µM | – | Cc1ccc(S(=O)(=O)N[C@@H](CCCCN)C(=O)Nc2ccc(Oc3ccccc3)cc2)cc1 [compound 31] |
| 230 µM | – | – | Cc1ccc(S(=O)(=O)N[C@@H](CCCCN)C(=O)Nc2cc(C)nc3ccccc23)cc1 [compound 42] |
| – | – | IC50 (bovine thrombin [3]): > 1000 µM; IC50 (bovine trypsin): > 150 µM; IC50 (Plasmin [1]; [8]): > 1000 µM; IC50 (bovine thrombin [4]): > 1000 µM; IC50 (human plasma kallikrein): > 1000 µM; IC50 (Plasmin [2]; [9]): > 1000 µM; IC50 (human urokinase): > 1000 µM | NCCCC[C@H](NS(=O)(=O)c1ccccc1)C(N)=O [compound 4] |
| 140 µM | – | IC50 (Plasmin [5]): 200 µM | Cc1ccc(S(=O)(=O)N[C@@H](CCCCN)C(=O)Nc2ccc(C(=O)c3ccccc3)cc2)cc1 [compound 36] |
| 2000 µM | 1000 µM | – | Cc1ccc(S(=O)(=O)N[C@H](CCCCN)C(=O)Nc2ccc(C(=O)c3ccccc3)cc2)cc1 [compound 20] |
| – | – | IC50 (Plasmin [1]; [8]): 1400 µM; IC50 (Plasmin [2]; [9]): 1000 µM | Cc1ccc(S(=O)(=O)N[C@@H](CCCCN)C(=O)O)cc1 [compound 5] |
| 650 µM | 600 µM | – | CCOC(=O)[C@H](NC(=O)[C@H](CCCCN)NS(=O)(=O)c1ccc(C)cc1)c1ccccc1 [compound 22] (Tos-Lys-[dPhg]-OEt) |
| 390 µM | 75 µM | IC50 (Plasmin [5]): 80 µM | CCOC(=O)c1cc(NC(=O)[C@H](CCCCN)NS(=O)(=O)c2cccc3ccccc23)cc(C(=O)OCC)c1 [Compound No. 11] |
| 590 µM | 440 µM | – | CCOC(=O)c1c(C)cc(NC(=O)[C@H](CCCCN)NS(=O)(=O)c2ccc(C)cc2)cc1C [compound 40] |
| 370 µM | 190 µM | – | Cc1ccc(S(=O)(=O)N[C@@H](CCCCN)C(=O)Nc2ccc(Cl)c(Cl)c2)cc1 [compound 35] |
